Literature values in patent US8158153B2, “Nanoparticulate bisphosphonate compositions” (Alkermes Pharma Ireland Limited, priority 2005, dated 2012).
Entries after “also recorded” stand apart in the source; their conditions may differ. Structures can show the parent of a compound that is named as a salt.

Assays:
[1] = patients; clinical use
[2] = 1% solution in distilled water

Row | Structure (SMILES) | side effects / adverse effects [1] | solubility in organic solvents (organic solvents) | solubility in water | pH of a 1% solution [2]
1 | CCCCCN(C)CCC(O)(P(=O)([O-])O)P(=O)(O)O.O.[Na+] [Ibandronate sodium, 3-(N-methyl-N-pentyl) amino-1-hydroxypropane-1,1-diphosphonic acid, monosodium salt, monohydrate] | gastrointestinal irritation | practically insoluble | freely soluble | 
2 | NCCC(O)(P(=O)([O-])O)P(=O)([O-])O.[Na+].[Na+] [Pamidronate disodium, phosphonic acid (3-amino-1-hydroxypropylidene) bis-, disodium salt, pentahydrate] | esophageal ulcers; also recorded: pain at the site of catheter insertion; also recorded: gastrointestinal pain |  |  | approximately 8.3
3 | O=P(O)(O)C(O)(Cc1cccnc1)P(=O)(O)O [Risedronate sodium, [1-hydroxy-2-(3-pyridinyl)ethylidene]bis[phosphonic acid] monosodium salt] | gastrointestinal irritation |  |  | 
4 | CC(O)(P(=O)([O-])[O-])P(=O)(O)O.[Na+].[Na+] [etidronate disodium, disodium salt of (1-hydroxyethylidene) diphosphonic acid] |  |  | highly soluble | 
